Columns and labels:
geotrichum candidum = test: in vivo efficacy on valencia citrus, wound inoculation then treatment six hours later, fruit affected by rot counted; conditions: 5° C., 28 days
Procedure: This trial was carried out in vivo.
The fungicidal compositions were used in solution at the doses detailed in Table 3. Citrus of the valencia variety, untreated after harvest, was treated by sprinkling a fungicidal solution up to the run-off limit at the doses described in Table 3 of results (10 citrus per product). First inoculation by pre-made wounds was made with a suspension of 150000 spores/ml of geotrichum candidum, obtained from a pre-culture on PDA medium. Then six hours later, the product tested was applied up to the run-off limit. The fruit were then stored in the dark at 5° C. and 100% relative humidity and the scores for the disease were measured 28 days later.
The number of fruit samples affected by rot was counted and, in comparison with the untreated control, a percentage efficacy was calculated and show in table 3 below: […]

penicillium expansum = test: in vivo efficacy on Golden apples, preventive sprinkling then inoculation, fruit affected by rot counted; conditions: for Efficacy: Golden apples, 20° C., scored from three weeks; for control of the growth of the fungus (in words): hexanal 1000 ppm, imidazalil 250 ppm, alone or combined, apples
Procedure: This example provides an illustration of the efficacy of the composition according to the invention for combating penicillium expansum on apples. The trial was carried out in vivo.
The fungicidal compositions were used in solution at the doses detailed in Table 2. Apples of the Golden variety, untreated after harvest, were treated by sprinkling a fungicidal solution up to the run-of limit at the doses described in Table 2 (10 apples per product). Six hours later, the fruit was inoculated by sprinkling an aqueous suspension at 150000 spores/ml of […]. obtained from a pre-culture on PDA medium. This inoculation by sprinkling was carried out up to the run-off limit. The fruit was then stored in the dark at 20° C. and 100% relative humidity and the scores for the disease were measured three weeks later, for a period of two weeks. The numbers of fruit samples affected by rot were counted and, in comparison with the untreated control, a percentage efficacy was calculated using the formula
(§1) (Diameter of the Control−Diameter of the Trial/Diameter of the Control×100)

penicilium italicum = test: in vitro efficacy on PDA medium in microtitre plate wells (radial growth of colony); assay type: cell-based; conditions: for control of the growth of the fungus (in words): 60 ppm each, alone or combined; for Radial growth of fungus / Efficacy: 60 ppm, PDA medium, 22° C.; for Radial growth of fungus: control 20 mm; for Efficacy: versus untreated control
Procedure: This example illustrates the efficacy of the composition according to the invention for controlling penicilium italicum. The trial was carried out in vitro.
The fungicidal compositions were used in the form of the formulated product incorporated in PDA medium in superfusion at doses in an amount of 6 μl of fungicidal solutions together with 1000 μl of PDA per well of 20 mm in diameter of a microtitre plate (four repeats/product). One day later, a microdrop of an aqueous suspension of penicilium italicum supplemented with 400 ppm of Tween 20 was brought to the surface of each well of the microtitre plate. The cultures were then incubated at 22° C. at 60% relative humidity under subdued light until the control culture (without fungicide) had covered the entire surface of the well. The diameter of each colony was then measured and, in comparison with untreated control, a percentage efficacy was calculated using the formula
as §1

SMILES	Efficacy (geotrichum candidum; 500 ppm) [%]	Efficacy (penicillium expansum; 250 ppm) [%]	control of the growth of the fungus (in words) (penicillium expansum)	control of the growth of the fungus (in words) (penicilium italicum)	Radial growth of fungus (penicilium italicum) [mm]	Efficacy (penicilium italicum) [%]	Efficacy (geotrichum candidum; 1500 ppm) [%]	Efficacy (penicillium expansum; 1000 ppm) [%]
C=CCOC(Cn1ccnc1)c1ccc(Cl)cc1Cl (stereo not drawn) [Imazalil, imazalil]	0	28	did not control the growth of the fungus	–	–	–	–	–
CCCN(CCOc1c(Cl)cc(Cl)cc1Cl)C(=O)n1ccnc1 [procloraz, prochloraz]	–	–	–	poor results	18	10	–	–
CCCCCC=O [hexanal]	–	–	did not control the growth of the fungus	poor results	19	5	20	12
